The record followed here is PMC9048848 (RSC Advances, 2020).

This assay addresses T1, PTP1B (Homo sapiens, UniProt P18031).
T1 sequence (P18031 1-321): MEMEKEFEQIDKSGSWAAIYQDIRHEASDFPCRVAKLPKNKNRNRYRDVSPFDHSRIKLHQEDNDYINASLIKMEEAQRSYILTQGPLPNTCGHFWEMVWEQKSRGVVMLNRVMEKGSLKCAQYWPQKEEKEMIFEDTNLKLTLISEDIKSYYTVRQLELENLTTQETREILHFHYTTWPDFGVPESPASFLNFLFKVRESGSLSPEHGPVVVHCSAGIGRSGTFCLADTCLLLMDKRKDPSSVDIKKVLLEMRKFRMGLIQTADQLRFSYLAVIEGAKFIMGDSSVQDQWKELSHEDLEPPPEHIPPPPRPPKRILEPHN
Briefly: SPR. Type of assay: binding.

SMILES strings stand for the structures.

For `CCOCc1cc(O)c(O)c(Br)c1Cc1cc(O)c(O)c(Br)c1Br` [BPN, 3,4-Dibromo-5-(2-bromo-6-(ethoxymethyl)-3,4-dihydroxybenzyl)benzene-1,2-diol], the affinity, expressed as Kd, was 3.3 µM.
